Data from patent US20050233970A1, “Methods for treating long QT syndrome” (priority 2004, published 2005).
Read-outs that look alike come from different tables or passages of the source. Square brackets hold non-standard residues; d marks the D form. Peptide text beside a SMILES is read from it. dPhe(4-Cl) = N[C@H](Cc1ccc(Cl)cc1)C(=O)O; d2Nal = N[C@H](Cc1ccc2ccccc2c1)C(=O)O; Lys(iPr) = CC(C)NCCCC[C@H](N)C(=O)O; NMeY = CN[C@@H](Cc1ccc(O)cc1)C(=O)O; d3Pal = N[C@H](Cc1cccnc1)C(=O)O

What was measured:
testosterone [1] = experiment: Study I: plasma testosterone (radioimmunoassay) on ECG study days; format: in vivo, human
Protocol: Abarelix was given as a dose of 100 mg IM on days 1, 15, 29 and every 28 days thereafter for 48 weeks. […] Plasma testosterone samples were obtained at the same time. All ECG's were analyzed in a blinded fashion to treatment allocation. Each ECG was analyzed in comparison to its respective baseline for heart rate, QRS duration, PR interval, QT interval, and QTc. Concomitant medicines and prior medical history was recorded on all patients. […] If a patient experienced a QTcB of ≧500 msec while on study, therapy was to be discontinued. Laboratory analysis of testosterone and dihydrotestosterone were determined using certified central laboratories and standard radioimmunoessay methods.

testosterone [2] = experiment: Studies II and III: plasma testosterone (radioimmunoassay) on ECG study days; format: in vivo, human
Protocol: QTcB and QTcF were calculated utilizing standard formulas.^(F)
Laboratory analysis of testosterone and dihydrotestosterone were determined using certified central laboratories and standard radioimmunoessay methods.

QT interval [3] = settings: human, in vivo
Protocol: Abarelix was given as a dose of 100 mg IM on days 1, 15, 29 and every 28 days thereafter for 48 weeks. Prospectively, a standard 12-lead ECG was performed at baseline and on days 85 and 337. Plasma testosterone samples were obtained at the same time. All ECG's were analyzed in a blinded fashion to treatment allocation. Each ECG was analyzed in comparison to its respective baseline for heart rate, QRS duration, PR interval, QT interval, and QTc. Concomitant medicines and prior medical history was recorded on all patients. Patients with a baseline QT of >450 msec were to be excluded from the study. If a patient experienced a QTcB of ≧500 msec while on study, therapy was to be discontinued. […] They are the focus of this report.

QT interval [4] = settings: human, in vivo; remark: listed apart in the source
Protocol: Studies II and III required an ECG at baseline and on day 169 and, if the patient continued, on day 365. […] The ECG machine-calculated heart rate and QT interval were entered into a database. QTcB and QTcF were calculated utilizing standard formulas.^(F)
QTc evaluations included measurement of baseline, post baseline, on-therapy and change from baseline in QTcB and QTcF in each treatment group.
ECG measurement of QTcB and QTcF were calculated based on standard QT and heart rate measurements. T-tests were used to evaluate intra as well as inter-treatment change from baseline for each treatment group. Comparisons between treatment groups were performed in a pair wise manner.

| SMILES | Testosterone Levels, Median (testosterone [1]; Baseline) [ng/dL] | Testosterone Levels, Median (testosterone [1]; Day 85) [ng/dL] | Testosterone Levels, Median (testosterone [1]; Day 337) [ng/dL] | Testosterone Levels, Median (testosterone [2]; Baseline) [ng/dL] | Testosterone Levels, Median (testosterone [2]; Day 169) [ng/dL] | QTcB Baseline (QT interval [3]) | QTcB On Therapy (QT interval [3]) | QTcF Baseline (QT interval [3]) | QTcF Change from Baseline (QT interval [3]) | QTcF On Therapy (QT interval [3]) | QTcB Baseline (QT interval [4]) | QTcB On Therapy (QT interval [4]) | QTcF Baseline (QT interval [4]) | QTcF On Therapy (QT interval [4]) |
| --- | --- | --- | --- | --- | --- | --- | --- | --- | --- | --- | --- | --- | --- | --- |
| CC(=O)N[C@H](Cc1ccc2ccccc2c1)C(=O)N[C@H](Cc1ccc(Cl)cc1)C(=O)N[C@H](Cc1cccnc1)C(=O)N[C@@H](CO)C(=O)N(C)[C@@H](Cc1ccc(O)cc1)C(=O)N[C@H](CC(N)=O)C(=O)N[C@@H](CC(C)C)C(=O)N[C@@H](CCCCNC(C)C)C(=O)N1CCC[C@H]1C(=O)N[C@H](C)C(N)=O [Abarelix, abarelix] (Ac-[d2Nal][dPhe(4-Cl)][d3Pal]S[NMeY][dN]L[Lys(iPr)]P[dA]-NH2) | 316 | 23 | 35 | 361 | 14 | 413.5 (26.8) msec | 426.8 (22.9) msec | 404.6 (23.5) msec | 12.0 (16.2) msec | 419.5 (21.3) msec | 417.9 (28.6) msec | 431.7 (29.8) msec | 410.6 (28.1) msec | 423.4 (28.0) msec |
| CCNC(=O)[C@@H]1CCCN1C(=O)[C@H](CCCNC(=N)N)NC(=O)[C@H](CC(C)C)NC(=O)[C@@H](CC(C)C)NC(=O)[C@H](Cc1ccc(O)cc1)NC(=O)[C@H](CO)NC(=O)[C@H](Cc1c[nH]c2ccccc12)NC(=O)[C@H](Cc1c[nH]cn1)NC(=O)[C@@H]1CCC(=O)N1 [Leuprolide, leuprolide] |  |  |  | 342 | 9 |  |  |  |  |  | 421.6 (29.4) msec | 441.6 (25.8) msec | 414.5 (26.0) msec | 432.1 (23.6) msec |
